Reference: ChEMBL document CHEMBL1275486, “Kinetic characterization of VIM-7, a divergent member of the VIM metallo-beta-lactamase family” (Antimicrob Agents Chemother, 2008)

What was measured:
Escherichia coli [1] = experiment: Activity of Escherichia coli beta-lactamase VIM-1 by spectrophotometry
Escherichia coli [2] = experiment: Ratio of Kcat to Km for Escherichia coli beta-lactamase VIM-1 by spectrophotometry

- Km (Escherichia coli [1]): 30 µM
- kcat (Escherichia coli [1]): 315 s⁻¹
- kcat/Km (Escherichia coli [2]): 1.05e+07 M⁻¹ s⁻¹
Compound: O=C(Cc1cccs1)N[C@@H]1C(=O)N2C(C(=O)[O-])=C(C[n+]3ccccc3)CS[C@H]12
